Laboratory results: US10358434B2, “2-(3-pyridinyl)-1H-benzimidazole derivative compound and medicament containing same” (NIHON MEDI-PHYSICS CO., LTD., priority 2014, dated 2019)

What was measured:
[1] = Plasma stability evaluation (TLC analysis); assay type: in vitro ADME; conditions: 37° C., 60 minutes, TLC analysis
In short: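 Radiolabelled compounds were incubated in heparin-treated pooled normal human plasma at 37° C for 60 minutes. After methanol deproteinization and centrifugation, stability was assessed by TLC under the conditions used for each compound's synthesis.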

[2] = In vivo kinetics experiment (radioactivity distribution); set-up: species or system Wistar male rat; conditions: rat, caudal vein
In short: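 Male Wistar rats (9 weeks) under isoflurane received approximately 1 to 3.7 MBq radiotracer in saline with 1 w/v % ascorbic acid by tail-vein injection. At 10, 30 and 60 min, rats were exsanguinated; blood, organs and remaining body weighed and counted, giving % ID/g and adrenal-to-tissue ratios.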

[3] = system: human adrenal gland section expressing aldosterone-producing adenoma; test: In vitro autoradiography using human adrenal adenoma; assay type: binding; conditions: section of FIG. 17(a)
In short: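 Frozen 7-μm sections of human adrenal bearing aldosterone-producing adenoma were immersed 10 min in radioligand (5-33 kBq/mL) in PBS with 1% fatty-acid-free BSA, washed, then exposed to imaging plates for 16-20 h. Equal-area ROI PSL in adenoma (B2) versus normal cortex (B1) gave B2/B1, corrected for nuclide half-life, added activity and exposure time.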

## [123I]c1ccc2nc(-c3cncc(Cn4ccnc4)c3)n(C3CC3)c2c1 [[^123I] 602, 1-Cyclopropyl-2-[3-(1H-imidazol-1-ylmethyl)pyridin-5-yl]-6-[^123I]iodo-1H-benzimidazole]
[1]
  Radiochemical purity after incubation in human plasma: 82%
[2]; 10 min after administration
  Adrenal gland/blood ratio of radioactivity accumulation: 28.34 ± 5.95
  Adrenal gland/fat ratio of radioactivity accumulation: 89.23 ± 14.22
  Adrenal gland/kidney ratio of radioactivity accumulation: 5.85 ± 1.07
  Adrenal gland/liver ratio of radioactivity accumulation: 3.02 ± 0.41
  Adrenal gland/muscle ratio of radioactivity accumulation: 54.21 ± 12.64
  Adrenal gland/small intestine ratio of radioactivity accumulation: 6.95 ± 1.48
  Radioactivity distribution Adrenal gland: 9.09 ± 2.28 % ID/g
  Radioactivity distribution Bladder (including urine): 0.32 ± 0.15 % ID/g
  Radioactivity distribution Blood: 0.32 ± 0.01 % ID/g
  Radioactivity distribution Fat: 0.10 ± 0.01 % ID/g
  Radioactivity distribution Heart: 0.63 ± 0.07 % ID/g
  Radioactivity distribution Kidney: 1.54 ± 0.11 % ID/g
  Radioactivity distribution Large intestine: 0.19 ± 0.00 % ID/g
  Radioactivity distribution Liver: 2.98 ± 0.35 % ID/g
  Radioactivity distribution Lung: 1.06 ± 0.09 % ID/g
  Radioactivity distribution Muscle (lower limbs): 0.17 ± 0.00 % ID/g
  Radioactivity distribution Remaining whole body: 0.27 ± 0.01 % ID/g
  Radioactivity distribution Small intestine: 1.30 ± 0.05 % ID/g
  Radioactivity distribution Spleen: 5.26 ± 1.78 % ID/g
  Radioactivity distribution Stomach: 1.03 ± 0.28 % ID/g
  Radioactivity distribution Testis: 0.07 ± 0.02 % ID/g
  Radioactivity distribution Thyroid gland: 3.54 ± 0.37 % ID/g
  Radioactivity distribution Whole brain: 0.02 ± 0.00 % ID/g
[2]; 30 min after administration
  Adrenal gland/blood ratio of radioactivity accumulation: 40.26 ± 12.64
  Adrenal gland/fat ratio of radioactivity accumulation: 147.73 ± 74.06
  Adrenal gland/kidney ratio of radioactivity accumulation: 17.90 ± 4.66
  Adrenal gland/liver ratio of radioactivity accumulation: 13.82 ± 3.67
  Adrenal gland/muscle ratio of radioactivity accumulation: 110.91 ± 25.83
  Adrenal gland/small intestine ratio of radioactivity accumulation: 9.24 ± 1.46
  Radioactivity distribution Adrenal gland: 16.93 ± 3.32 % ID/g
  Radioactivity distribution Bladder (including urine): 1.35 ± 0.14 % ID/g
  Radioactivity distribution Blood: 0.43 ± 0.05 % ID/g
  Radioactivity distribution Fat: 0.12 ± 0.04 % ID/g
  Radioactivity distribution Heart: 0.49 ± 0.01 % ID/g
  Radioactivity distribution Kidney: 0.95 ± 0.06 % ID/g
  Radioactivity distribution Large intestine: 0.19 ± 0.00 % ID/g
  Radioactivity distribution Liver: 1.24 ± 0.09 % ID/g
  Radioactivity distribution Lung: 0.76 ± 0.04 % ID/g
  Radioactivity distribution Muscle (lower limbs): 0.15 ± 0.01 % ID/g
  Radioactivity distribution Remaining whole body: 0.31 ± 0.01 % ID/g
  Radioactivity distribution Small intestine: 1.83 ± 0.07 % ID/g
  Radioactivity distribution Spleen: 5.44 ± 1.82 % ID/g
  Radioactivity distribution Stomach: 2.24 ± 0.39 % ID/g
  Radioactivity distribution Testis: 0.12 ± 0.00 % ID/g
  Radioactivity distribution Thyroid gland: 9.97 ± 0.74 % ID/g
  Radioactivity distribution Whole brain: 0.02 ± 0.00 % ID/g
[2]; 60 min after administration
  Adrenal gland/blood ratio of radioactivity accumulation: 29.41 ± 3.13
  Adrenal gland/fat ratio of radioactivity accumulation: 105.17 ± 28.98
  Adrenal gland/kidney ratio of radioactivity accumulation: 18.87 ± 3.12
  Adrenal gland/liver ratio of radioactivity accumulation: 16.66 ± 3.13
  Adrenal gland/muscle ratio of radioactivity accumulation: 95.38 ± 22.07
  Adrenal gland/small intestine ratio of radioactivity accumulation: 6.64 ± 2.31
  Radioactivity distribution Adrenal gland: 11.65 ± 1.54 % ID/g
  Radioactivity distribution Bladder (including urine): 1.27 ± 0.07 % ID/g
  Radioactivity distribution Blood: 0.40 ± 0.01 % ID/g
  Radioactivity distribution Fat: 0.11 ± 0.02 % ID/g
  Radioactivity distribution Heart: 0.35 ± 0.03 % ID/g
  Radioactivity distribution Kidney: 0.62 ± 0.08 % ID/g
  Radioactivity distribution Large intestine: 0.43 ± 0.19 % ID/g
  Radioactivity distribution Liver: 0.70 ± 0.05 % ID/g
  Radioactivity distribution Lung: 0.60 ± 0.03 % ID/g
  Radioactivity distribution Muscle (lower limbs): 0.12 ± 0.02 % ID/g
  Radioactivity distribution Remaining whole body: 0.33 ± 0.02 % ID/g
  Radioactivity distribution Small intestine: 1.85 ± 0.44 % ID/g
  Radioactivity distribution Spleen: 5.27 ± 0.89 % ID/g
  Radioactivity distribution Stomach: 4.35 ± 0.25 % ID/g
  Radioactivity distribution Testis: 0.15 ± 0.01 % ID/g
  Radioactivity distribution Thyroid gland: 19.76 ± 1.03 % ID/g
  Radioactivity distribution Whole brain: 0.02 ± 0.00 % ID/g
[3]
  B2/B1 accumulation ratio: 2.06
[3]; site 71a
  B2 (PSL value, aldosterone-producing adenoma): 6142
[3]; site 72a
  B1 (PSL value, normal adrenal cortex): 2981
